Biological target: T1, kinase domain protein of RC kinase (Homo sapiens, UniProt Q56UN5)
T1 sequence (Q56UN5 1061-1324 limits assumed): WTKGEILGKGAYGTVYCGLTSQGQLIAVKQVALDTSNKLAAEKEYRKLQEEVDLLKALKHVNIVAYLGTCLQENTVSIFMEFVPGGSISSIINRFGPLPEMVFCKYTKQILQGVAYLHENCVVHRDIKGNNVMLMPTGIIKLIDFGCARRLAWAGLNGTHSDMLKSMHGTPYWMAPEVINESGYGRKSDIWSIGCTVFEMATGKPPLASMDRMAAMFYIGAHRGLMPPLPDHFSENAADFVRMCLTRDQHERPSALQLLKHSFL
Assay: Enzymatic assay for kinase inhibitory activity (Crebtide substrate, LANCE read-out)
Assay type: biochemical
Details: compound at 1 μM
Description: Solutions of a test compound, Crebtide (a substrate), a kinase, and ATP were prepared using 1×MAPK Buffer (50 mM HEPES, 1 mM EGTA, […], 10 mM MgCl2, 2 mM DTT, and 0.01% Tween 20).
To each well, the test compound (1 μL) was first added (in duplicate) to reach a final concentration of 1 μM or 1×IC50 of the compound. The kinase (5 μl) was then added to each well to reach a final concentration of […] for the kinase domain or […] for the full-length domain. Each plate included a positive and negative controls in duplicate wells. Crebtide (2.5 μL) was then added to each well in duplicate to reach a final concentration of 50 nM. If the full-length kinase was used, the plates were incubated for 45 min at room temperature before proceeding further. ATP (2.5 μL) was added to each well to reach a final concentration of 1 μM for the kinase domain and 3 μM for the full-length.
After the addition of ATP, the plates were incubated for 45 min at room temperature. During the incubation, an EDTA solution (40 mM) and anti-Crebtide ([…]) were prepared. Additionally, a detection buffer stock solution was diluted ten fold before use.
After the incubation, the anti-Crebtide (5 μL) and EDTA (5 μL) were added to each well to reach their final concentrations of […] and 10 mM, respectively. The plates were allowed to develop at room temperature for 45 min. The plates were then read at 665 nm and 615 nm using Perkin Elmer Lance machine.
The biological results of inhibition of the kinase domain protein of RC kinase are summarized in Tables 2 and 3, wherein A represents at least 50% inhibition of the RC kinase activity at 1 μM; B represents no greater than 50% but at least 20% inhibition of the RC kinase activity at 1 μM; C represents no greater than 20% but at least 5% inhibition of the RC kinase activity at 1 μM; and D represents no greater than 5% inhibition of the RC kinase activity at 1 μM.

Structure (SMILES) | inhibition at 1 µM | Activity (inhibition of the RC kinase activity)
NC(=O)c1c(Nc2cccc(Cl)c2)n[nH]c1/N=C/c1ccc(-c2ccccn2)s1 [Compound B60] |  | D (no greater than 5% inhibition of the RC kinase activity at 1 μM)
NC(=O)c1c(Nc2cccc(Cl)c2)n[nH]c1/N=C/c1ccc(Oc2ccc(C(F)(F)F)cn2)cc1 [Compound B63] |  | B (no greater than 50% but at least 20% inhibition of the RC kinase activity at 1 μM)
Cn1nc(CSc2ccccc2)c(/C=N/c2[nH]nc(Nc3cccc(Cl)c3)c2C(N)=O)c1Cl [Compound B67] | 20 to 50% | 
Cc1[nH]c2ccccc2c1/C=N/c1[nH]nc(Nc2cccc(Cl)c2)c1C(N)=O [Compound B69] |  | B (no greater than 50% but at least 20% inhibition of the RC kinase activity at 1 μM)
CCc1nc(C)c(/C=N/c2[nH]nc(Nc3cccc(Cl)c3)c2C(N)=O)[nH]1 [Compound B70] |  | B (no greater than 50% but at least 20% inhibition of the RC kinase activity at 1 μM)
NC(=O)c1c(Nc2cccc(Cl)c2)n[nH]c1/N=C/c1nc(-c2ccccc2)[nH]c1Cl [Compound B72] |  | B (no greater than 50% but at least 20% inhibition of the RC kinase activity at 1 μM)
NC(=O)c1c(Nc2cccc(Cl)c2)n[nH]c1/N=C/c1ccc(-c2ccc(Cl)cc2)o1 [Compound B73] |  | B (no greater than 50% but at least 20% inhibition of the RC kinase activity at 1 μM)
COc1cc(/C=N/c2[nH]nc(Nc3cccc(Cl)c3)c2C(N)=O)cc(O)c1OC [Compound B74] | 5 to 20% | 
NC(=O)c1c(Nc2cccc(Cl)c2)n[nH]c1/N=C/c1c[nH]c2c(F)c(F)c(F)c(F)c12 [Compound B76] |  | D (no greater than 5% inhibition of the RC kinase activity at 1 μM)
Cn1nc(C(F)(F)F)c(/C=N/c2[nH]nc(Nc3cccc(Cl)c3)c2C(N)=O)c1Cl [Compound B81] | ≤ 5% | 
NC(=O)c1c(Nc2cccc(Cl)c2)n[nH]c1/N=C/c1c(F)cccc1Cl [Compound B82] |  | D (no greater than 5% inhibition of the RC kinase activity at 1 μM)
NC(=O)c1c(Nc2cccc(Cl)c2)n[nH]c1/N=C/c1ccc(CO)o1 [Compound B84, 3-((3-chlorophenyl)amino)-5-(((5-(hydroxymethyl)furan-2-yl)methylene)amino)-1H-pyrazole-4-carboxamide] | ≥ 50% | 
NC(=O)c1c(Nc2cccc(Cl)c2)n[nH]c1/N=C/c1ccc(OC(F)(F)F)c(F)c1 [Compound B90] |  | D (no greater than 5% inhibition of the RC kinase activity at 1 μM)
Cn1c(Cl)c(/C=N/c2[nH]nc(Nc3cccc(Cl)c3)c2C(N)=O)c2ccccc21 [Compound B91] |  | D (no greater than 5% inhibition of the RC kinase activity at 1 μM)
NC(=O)c1c(Nc2cccc(Cl)c2)n[nH]c1/N=C/c1ccc(Cl)cc1Cl [Compound B93] |  | D (no greater than 5% inhibition of the RC kinase activity at 1 μM)
NC(=O)c1c(Nc2cccc(Cl)c2)n[nH]c1/N=C/C1CCNCC1 [Compound B96] |  | D (no greater than 5% inhibition of the RC kinase activity at 1 μM)
NC(=O)c1c(Nc2cccc(Cl)c2)n[nH]c1/N=C/c1ccc(-n2cnc3ccccc32)cc1 [Compound B97] |  | D (no greater than 5% inhibition of the RC kinase activity at 1 μM)
NC(=O)c1c(Nc2cccc(Cl)c2)n[nH]c1/N=C/c1c[nH]nc1-c1ccc(F)cc1 [Compound B98] |  | C (no greater than 20% but at least 5% inhibition of the RC kinase activity at 1 μM)
Cc1cc(/C=N/c2[nH]nc(Nc3cccc(Cl)c3)c2C#N)no1 [Compound B100] |  | C (no greater than 20% but at least 5% inhibition of the RC kinase activity at 1 μM)
NC(=O)c1c(Nc2cccc(Cl)c2)n[nH]c1/N=C/c1cccnc1Cl [Compound B105] |  | C (no greater than 20% but at least 5% inhibition of the RC kinase activity at 1 μM)
COc1cc(O)cc(OC)c1/C=N/c1[nH]nc(Nc2cccc(Cl)c2)c1C(N)=O [Compound B108] |  | B (no greater than 50% but at least 20% inhibition of the RC kinase activity at 1 μM)

Now from value to compound, other results behind:

inhibition at 1 µM | Structure (SMILES) | Activity (inhibition of the RC kinase activity)
≥ 50% | Cc1cc(/C=N/c2[nH]nc(Nc3cccc(Cl)c3)c2C(N)=O)cc(C)c1O [Compound B61, 3-((3-chlorophenyl)amino)-5-((4-hydroxy-3,5-dimethylbenzylidene)amino)-1H-pyrazole-4-carboxamide] | 
≥ 50% | Cc1ncsc1/C=N/c1[nH]nc(Nc2cccc(Cl)c2)c1C(N)=O [Compound B62, 3-((3-chlorophenyl)amino)-5-(((4-methylthiazol-5-yl)methylene)amino)-1H-pyrazole-4-carboxamide] | 
≥ 50% | NC(=O)c1c(Nc2cccc(Cl)c2)n[nH]c1/N=C/c1ccc(Oc2ncccn2)cc1 [Compound B64, 3-((3-chlorophenyl)amino)-5-((4-(pyrimidin-2-yloxy)benzylidene)amino)-1H-pyrazole-4-carboxamide] | 
20 to 50% | NC(=O)c1c(Nc2cccc(Cl)c2)n[nH]c1/N=C/c1ccccc1-c1cccs1 [Compound B65] | 
20 to 50% | NC(=O)c1c(Nc2cccc(Cl)c2)n[nH]c1/N=C/c1ccc(N2CCCC2)nc1 [Compound B66] | 
≥ 50% | NC(=O)c1c(Nc2cccc(Cl)c2)n[nH]c1/N=C/c1ccc(OC(F)F)c(O)c1 [Compound B68] | 
20 to 50% | NC(=O)c1c(Nc2cccc(Cl)c2)n[nH]c1/N=C/c1cccn1S(=O)(=O)c1ccccc1 [Compound B71, 3-((3-chlorophenyl)amino)-5-(((1-(phenylsulfonyl)-1H-pyrrol-2-yl)methylene)amino)-1H-pyrazole-4-carboxamide] | 
5 to 20% | NC(=O)c1c(Nc2cccc(Cl)c2)n[nH]c1/N=C/c1ccc(Oc2nccc(C(F)(F)F)n2)cc1 [Compound B75] | 
5 to 20% | NC(=O)c1c(Nc2cccc(Cl)c2)n[nH]c1/N=C/c1cccc(Oc2ncccn2)c1 [Compound B77] | 
≤ 5% | NC(=O)c1c(Nc2cccc(Cl)c2)n[nH]c1/N=C/c1ncc(Cl)nc1Cl [Compound B78] | 
≤ 5% | NC(=O)c1c(Nc2cccc(Cl)c2)n[nH]c1/N=C/c1cnccn1 [Compound B80] | 
5 to 20% | NC(=O)c1c(Nc2cccc(Cl)c2)n[nH]c1/N=C/c1ccc(F)cc1O [Compound B83] | 
≥ 50% | NC(=O)c1c(Nc2cccc(Cl)c2)n[nH]c1/N=C/c1cc(F)c(O)c(F)c1 [Compound B86, 3-((3-chlorophenyl)amino)-5-((3,5-difluoro-4-hydroxybenzylidene)amino)-1H-pyrazole-4-carboxamide] | 
≤ 5% | N#Cc1cc(/C=N/c2[nH]nc(Nc3cccc(Cl)c3)c2C(N)=O)ccc1F [Compound B87] | 
≤ 5% | NC(=O)c1c(Nc2cccc(Cl)c2)n[nH]c1/N=C/c1ncccc1F [Compound B88] | 
≤ 5% | CS(=O)(=O)c1ccc(/C=N/c2[nH]nc(Nc3cccc(Cl)c3)c2C(N)=O)cc1 [Compound B92, 3-((3-chlorophenyl)amino)-5-((4-(methylsulfonyl)benzylidene)amino)-1H-pyrazole-4-carboxamide] | 
5 to 20% | NC(=O)c1c(Nc2cccc(Cl)c2)n[nH]c1/N=C/c1ccc(Cl)cc1O [Compound B94] | 
5 to 20% | NC(=O)c1c(Nc2cccc(Cl)c2)n[nH]c1/N=C/c1ccc(N2CCOCC2)nc1 [Compound B101] | 
5 to 20% | NC(=O)c1c(Nc2cccc(Cl)c2)n[nH]c1/N=C/c1c(O)cccc1Cl [Compound B103] | 
20 to 50% | NC(=O)c1c(Nc2cccc(Cl)c2)n[nH]c1/N=C/c1cccc(OCCO)c1 [Compound B104, 3-((3-chlorophenyl)amino)-5-((3-(2-hydroxyethoxy)benzylidene)amino)-1H-pyrazole-4-carboxamide] | 
≤ 5% | Cc1ccc(/C=N/c2[nH]nc(Nc3cccc(Cl)c3)c2C(N)=O)c(O)c1 [Compound B106] | 
≤ 5% | NC(=O)c1c(Nc2cccc(Cl)c2)n[nH]c1/N=C/c1ccc(OCc2ccc(F)cc2)cc1 [Compound B107] | 
5 to 20% | NC(=O)c1c(Nc2cccc(Cl)c2)n[nH]c1/N=C/c1ccc(OCCO)cc1 [Compound B109] | 

Same assay, conditions: compound at 1 μM, 1 µM

Structure (SMILES) | Activity (inhibition of the RC kinase activity)
N#Cc1c(Nc2cccc(Cl)c2)n[nH]c1/N=C/c1cnc(N)s1 [Compound B99] | A (at least 50% inhibition of the RC kinase activity at 1 μM)

Source: US9365556B2, “3,5-diaminopyrazole kinase inhibitors” (Axikin Pharmaceuticals, Inc., priority 2012, dated 2016)
